{"source": "ChEMBL document CHEMBL5678795", "about": "(Eur J Pharmacol, 1999)", "key": {"[1]": {"molecular_target": "T1, Endothelin-1 receptor (Rattus norvegicus, UniProt P26684)", "T1 sequence (P26684 whole entry)": "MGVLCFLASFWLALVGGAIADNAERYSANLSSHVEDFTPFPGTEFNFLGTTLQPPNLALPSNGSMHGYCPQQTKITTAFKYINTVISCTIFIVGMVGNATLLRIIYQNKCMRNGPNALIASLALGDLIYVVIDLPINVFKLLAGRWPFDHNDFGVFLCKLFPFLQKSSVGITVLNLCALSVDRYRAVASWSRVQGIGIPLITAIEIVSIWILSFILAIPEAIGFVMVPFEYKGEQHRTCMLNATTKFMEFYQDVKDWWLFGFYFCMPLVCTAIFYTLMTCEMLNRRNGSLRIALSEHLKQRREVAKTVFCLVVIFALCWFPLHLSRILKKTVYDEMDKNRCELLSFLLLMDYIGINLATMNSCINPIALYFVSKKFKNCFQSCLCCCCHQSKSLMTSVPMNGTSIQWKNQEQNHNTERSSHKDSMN", "assay": "Displacement of [125I]endhothelin-1 from ETA receptor in rat MMQ cells Membrane at 25 degC incubated for 3 hrs by radioligand competition binding assay", "type": "cell membranes"}, "[2]": {"molecular_target": "Beta-1 adrenergic receptor (Homo sapiens) (UniProt P08588)", "sequence (P08588 whole entry, looked up)": "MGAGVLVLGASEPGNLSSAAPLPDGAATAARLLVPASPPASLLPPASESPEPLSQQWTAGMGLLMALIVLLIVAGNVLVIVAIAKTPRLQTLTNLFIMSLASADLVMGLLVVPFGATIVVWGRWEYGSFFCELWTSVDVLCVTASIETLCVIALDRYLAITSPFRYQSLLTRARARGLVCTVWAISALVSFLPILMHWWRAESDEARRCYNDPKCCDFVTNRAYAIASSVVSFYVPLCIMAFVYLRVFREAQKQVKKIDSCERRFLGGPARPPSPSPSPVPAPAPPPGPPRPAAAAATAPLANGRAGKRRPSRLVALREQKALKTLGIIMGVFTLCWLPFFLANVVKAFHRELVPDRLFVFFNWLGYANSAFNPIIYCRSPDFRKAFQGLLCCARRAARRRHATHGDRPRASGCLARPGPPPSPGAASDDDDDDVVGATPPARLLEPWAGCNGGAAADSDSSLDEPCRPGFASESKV", "assay": "Displacement of [3H](-)CGP 12177 from human recombinant beta1-adrenoceptor at 10 uM incubated for 60 mins by radiometric based scintillation counter assay relative to control"}, "[3]": {"molecular_target": "Sodium-dependent noradrenaline transporter (Homo sapiens) (UniProt P23975)", "sequence (P23975 whole entry)": "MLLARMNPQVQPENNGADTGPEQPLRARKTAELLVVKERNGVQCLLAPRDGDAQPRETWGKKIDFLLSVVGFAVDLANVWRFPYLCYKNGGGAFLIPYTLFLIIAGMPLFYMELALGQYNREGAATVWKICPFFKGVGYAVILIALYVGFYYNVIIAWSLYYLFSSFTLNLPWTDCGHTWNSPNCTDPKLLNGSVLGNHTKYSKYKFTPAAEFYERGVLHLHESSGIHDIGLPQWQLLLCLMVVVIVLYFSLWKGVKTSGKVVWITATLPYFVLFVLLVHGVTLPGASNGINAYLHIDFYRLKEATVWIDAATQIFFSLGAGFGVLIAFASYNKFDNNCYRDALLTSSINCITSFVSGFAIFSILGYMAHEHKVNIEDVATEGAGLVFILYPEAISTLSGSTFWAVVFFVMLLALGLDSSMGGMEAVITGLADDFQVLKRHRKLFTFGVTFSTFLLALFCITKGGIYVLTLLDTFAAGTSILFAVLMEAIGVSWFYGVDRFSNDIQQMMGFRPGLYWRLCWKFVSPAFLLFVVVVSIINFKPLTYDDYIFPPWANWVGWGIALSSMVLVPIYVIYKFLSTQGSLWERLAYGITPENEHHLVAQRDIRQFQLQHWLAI", "assay": "Inhibition of human norepinephrine expressed in CHO cells at 10 uM incubated for 180 mins by radiometric based scintillation counter assay relative to control", "type": "cell-based"}, "[4]": {"molecular_target": "Type-2 angiotensin II receptor (Homo sapiens) (UniProt P50052)", "sequence (P50052 whole entry)": "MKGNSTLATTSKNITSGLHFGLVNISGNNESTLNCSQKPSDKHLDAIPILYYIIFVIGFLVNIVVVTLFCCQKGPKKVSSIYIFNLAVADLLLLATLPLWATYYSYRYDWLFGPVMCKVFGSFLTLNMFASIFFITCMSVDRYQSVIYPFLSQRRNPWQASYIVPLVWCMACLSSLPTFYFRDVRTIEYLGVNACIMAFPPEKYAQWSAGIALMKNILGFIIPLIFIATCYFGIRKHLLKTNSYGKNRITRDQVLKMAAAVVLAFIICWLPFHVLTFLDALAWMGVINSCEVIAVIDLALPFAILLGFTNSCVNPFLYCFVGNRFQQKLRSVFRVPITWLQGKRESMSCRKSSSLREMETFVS", "assay": "Displacement of [125I]CGP 42112A from human recombinant angiotensin AT2 receptor at 10 uM incubated for 240 mins by radiometric based scintillation counter assay relative to control"}, "[5]": {"molecular_target": "Cannabinoid receptor 2 (Homo sapiens) (UniProt P34972)", "sequence (P34972 whole entry)": "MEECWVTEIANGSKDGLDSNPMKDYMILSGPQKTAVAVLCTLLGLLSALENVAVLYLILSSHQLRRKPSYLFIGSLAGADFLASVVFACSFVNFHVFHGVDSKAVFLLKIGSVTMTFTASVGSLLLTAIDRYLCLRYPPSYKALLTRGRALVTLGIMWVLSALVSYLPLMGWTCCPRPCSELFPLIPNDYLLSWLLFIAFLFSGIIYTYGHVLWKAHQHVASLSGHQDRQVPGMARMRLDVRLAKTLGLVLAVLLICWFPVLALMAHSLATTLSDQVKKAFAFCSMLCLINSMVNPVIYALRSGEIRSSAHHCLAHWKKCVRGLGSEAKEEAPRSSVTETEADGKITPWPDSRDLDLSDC", "assay": "Displacement of [3H]WIN 55212-2 from human recombinant cannabinoid CB2 receptor at 10 uM incubated for 120 mins by radiometric based scintillation counter assay relative to control"}, "[6]": {"molecular_target": "D(3) dopamine receptor (Homo sapiens) (UniProt P35462)", "sequence (P35462 whole entry)": "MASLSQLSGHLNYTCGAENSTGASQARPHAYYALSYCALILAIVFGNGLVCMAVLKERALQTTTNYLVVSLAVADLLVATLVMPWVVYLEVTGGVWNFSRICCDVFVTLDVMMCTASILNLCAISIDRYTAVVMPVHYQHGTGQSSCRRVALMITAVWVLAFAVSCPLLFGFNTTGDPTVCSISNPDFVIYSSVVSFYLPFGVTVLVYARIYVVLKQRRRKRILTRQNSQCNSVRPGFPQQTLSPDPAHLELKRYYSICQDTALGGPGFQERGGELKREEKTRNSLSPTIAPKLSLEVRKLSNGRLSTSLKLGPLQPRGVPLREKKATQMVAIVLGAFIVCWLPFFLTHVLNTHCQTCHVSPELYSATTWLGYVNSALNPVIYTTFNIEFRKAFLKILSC", "assay": "Displacement of [3H]methyl-spiperone from human recombinant dopamine D3 receptor at 10 uM incubated for 60 mins by radiometric based scintillation counter assay relative to control"}, "[7]": {"molecular_target": "Sodium-dependent dopamine transporter (Homo sapiens) (UniProt Q01959)", "sequence (Q01959 whole entry)": "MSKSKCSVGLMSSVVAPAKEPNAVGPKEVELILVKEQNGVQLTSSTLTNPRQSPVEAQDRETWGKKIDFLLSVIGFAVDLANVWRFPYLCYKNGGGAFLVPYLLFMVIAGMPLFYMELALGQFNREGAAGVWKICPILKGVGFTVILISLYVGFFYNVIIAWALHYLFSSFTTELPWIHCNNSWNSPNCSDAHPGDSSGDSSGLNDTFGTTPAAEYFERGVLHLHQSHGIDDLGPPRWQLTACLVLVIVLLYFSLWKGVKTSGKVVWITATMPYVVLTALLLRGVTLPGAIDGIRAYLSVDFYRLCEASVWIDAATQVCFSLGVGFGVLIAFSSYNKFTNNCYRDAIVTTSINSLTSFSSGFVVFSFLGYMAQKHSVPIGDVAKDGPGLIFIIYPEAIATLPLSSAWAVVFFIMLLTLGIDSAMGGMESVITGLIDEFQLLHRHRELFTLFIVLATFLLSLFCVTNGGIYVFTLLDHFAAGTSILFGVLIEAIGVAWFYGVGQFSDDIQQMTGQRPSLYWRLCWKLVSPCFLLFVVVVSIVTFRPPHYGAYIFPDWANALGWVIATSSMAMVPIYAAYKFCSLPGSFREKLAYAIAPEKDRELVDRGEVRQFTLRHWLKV", "assay": "Displacement of [3H]BTCP from human recombinant dopamine receptor at 10 uM incubated for 120 mins by radiometric based scintillation counter assay relative to control"}, "[8]": {"molecular_target": "T2, Endothelin-1 receptor (Homo sapiens) (UniProt P25101)", "T2 sequence (whole entry)": "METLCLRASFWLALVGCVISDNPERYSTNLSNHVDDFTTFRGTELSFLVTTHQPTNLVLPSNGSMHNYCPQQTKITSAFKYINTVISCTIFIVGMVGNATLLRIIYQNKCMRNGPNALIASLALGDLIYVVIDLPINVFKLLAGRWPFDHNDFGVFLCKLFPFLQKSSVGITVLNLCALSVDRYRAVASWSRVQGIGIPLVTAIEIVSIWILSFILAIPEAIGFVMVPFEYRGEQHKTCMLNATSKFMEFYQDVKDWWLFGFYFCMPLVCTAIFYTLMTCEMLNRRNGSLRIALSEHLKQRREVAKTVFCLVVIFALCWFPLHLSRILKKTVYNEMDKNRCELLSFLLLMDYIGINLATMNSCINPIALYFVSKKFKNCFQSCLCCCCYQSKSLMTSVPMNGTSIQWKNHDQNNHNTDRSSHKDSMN", "assay": "Displacement of [125I]endothelin-1 from human recombinant endothelin ETA receptor at 10 uM incubated for 120 mins by radiometric based scintillation counter assay relative to control", "conditions": "filed as antagonist"}, "[9]": {"organism": "Rattus norvegicus", "assay": "Displacement of [3H]GABA from rat brain GABA receptor at 10 uM incubated for 60 mins by radiometric based scintillation counter assay relative to control", "type": "tissue-based"}, "[10]": {"molecular_target": "Substance-P receptor (Homo sapiens) (UniProt P25103)", "sequence (P25103 whole entry)": "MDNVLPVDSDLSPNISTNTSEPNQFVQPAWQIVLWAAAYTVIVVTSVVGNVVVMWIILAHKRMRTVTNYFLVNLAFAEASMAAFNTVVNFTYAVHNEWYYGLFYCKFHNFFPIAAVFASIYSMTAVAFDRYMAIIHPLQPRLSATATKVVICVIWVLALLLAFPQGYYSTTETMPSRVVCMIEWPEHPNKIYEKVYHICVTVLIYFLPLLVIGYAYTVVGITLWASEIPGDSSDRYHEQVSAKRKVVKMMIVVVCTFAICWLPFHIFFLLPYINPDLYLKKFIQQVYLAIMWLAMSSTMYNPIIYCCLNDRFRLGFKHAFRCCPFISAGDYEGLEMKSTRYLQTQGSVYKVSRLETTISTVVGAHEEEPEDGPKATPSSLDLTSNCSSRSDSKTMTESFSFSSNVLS", "assay": "Displacement of [125I]-Substance P LYS3 from human Neurokinin-1 receptor at 10 uM incubated for 30 mins by radiometric based scintillation counter assay relative to control"}, "[11]": {"molecular_target": "Neurotensin receptor type 1 (Homo sapiens) (UniProt P30989)", "sequence (P30989 whole entry)": "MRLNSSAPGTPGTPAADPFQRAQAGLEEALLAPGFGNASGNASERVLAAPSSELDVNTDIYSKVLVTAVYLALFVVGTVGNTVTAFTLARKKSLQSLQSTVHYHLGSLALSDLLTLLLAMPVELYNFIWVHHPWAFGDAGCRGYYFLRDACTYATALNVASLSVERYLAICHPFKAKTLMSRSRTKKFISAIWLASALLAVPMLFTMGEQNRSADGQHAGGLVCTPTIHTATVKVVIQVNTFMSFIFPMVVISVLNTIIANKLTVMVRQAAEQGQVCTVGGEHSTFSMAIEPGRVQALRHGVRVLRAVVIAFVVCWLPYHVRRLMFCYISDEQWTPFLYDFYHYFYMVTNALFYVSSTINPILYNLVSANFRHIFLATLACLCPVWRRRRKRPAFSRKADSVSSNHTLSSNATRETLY", "assay": "Displacement of [125I]Tyr3-neurotensin from human recombinant Neurotensin receptor at 10 uM incubated for 60 mins by radiometric based scintillation counter assay relative to control"}, "[12]": {"molecular_target": "Delta-type opioid receptor (Homo sapiens) (UniProt P41143)", "assay": "Displacement of [3H]DPDPE from human recombinant delta-Opioid receptor at 10 uM incubated for 60 mins by radiometric based scintillation counter assay relative to control", "conditions": "filed as antagonist"}, "[13]": {"molecular_target": "P2X receptor (Rattus norvegicus) (UniProt P51579+P49653+P51578+Q64663+P47824+P51577+P49654)", "assay": "Displacement of [3H]alpha,beta -MeATP from rat bladder P2X-purinergic receptor at 10 uM incubated for 120 mins by radiometric based scintillation counter assay relative to control", "type": "protein assay"}, "[14]": {"molecular_target": "5-hydroxytryptamine receptor 5A (Homo sapiens) (UniProt P47898)", "sequence (P47898 whole entry)": "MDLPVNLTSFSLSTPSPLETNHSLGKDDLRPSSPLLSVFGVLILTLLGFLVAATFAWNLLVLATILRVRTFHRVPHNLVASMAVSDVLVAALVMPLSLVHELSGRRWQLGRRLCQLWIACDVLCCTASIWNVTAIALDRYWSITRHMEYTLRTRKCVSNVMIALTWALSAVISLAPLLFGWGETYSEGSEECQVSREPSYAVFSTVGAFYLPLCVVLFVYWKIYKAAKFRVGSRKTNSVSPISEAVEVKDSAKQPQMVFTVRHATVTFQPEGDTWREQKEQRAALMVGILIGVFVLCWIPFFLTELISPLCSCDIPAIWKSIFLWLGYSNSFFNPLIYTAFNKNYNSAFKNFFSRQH", "assay": "Displacement of [3H]LSD from human recombinant 5-Hydroxytryptamine 5A at 10 uM incubated for 120 mins by radiometric based scintillation counter assay relative to control"}, "[15]": {"molecular_target": "Sigma non-opioid intracellular receptor 1 (Homo sapiens) (UniProt Q99720)", "sequence (Q99720 whole entry)": "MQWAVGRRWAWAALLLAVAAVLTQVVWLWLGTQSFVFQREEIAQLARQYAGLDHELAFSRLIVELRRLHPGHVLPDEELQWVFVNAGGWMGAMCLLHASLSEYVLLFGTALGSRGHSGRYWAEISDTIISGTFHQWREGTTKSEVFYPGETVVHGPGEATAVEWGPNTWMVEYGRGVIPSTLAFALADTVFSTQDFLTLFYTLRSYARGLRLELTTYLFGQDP", "assay": "Displacement of [3H]DTG from human sigma-Receptor at 10 uM incubated for 120 mins by radiometric based scintillation counter assay relative to control"}, "[16]": {"molecular_target": "Vasopressin V2 receptor (Homo sapiens) (UniProt P30518)", "sequence (P30518 whole entry)": "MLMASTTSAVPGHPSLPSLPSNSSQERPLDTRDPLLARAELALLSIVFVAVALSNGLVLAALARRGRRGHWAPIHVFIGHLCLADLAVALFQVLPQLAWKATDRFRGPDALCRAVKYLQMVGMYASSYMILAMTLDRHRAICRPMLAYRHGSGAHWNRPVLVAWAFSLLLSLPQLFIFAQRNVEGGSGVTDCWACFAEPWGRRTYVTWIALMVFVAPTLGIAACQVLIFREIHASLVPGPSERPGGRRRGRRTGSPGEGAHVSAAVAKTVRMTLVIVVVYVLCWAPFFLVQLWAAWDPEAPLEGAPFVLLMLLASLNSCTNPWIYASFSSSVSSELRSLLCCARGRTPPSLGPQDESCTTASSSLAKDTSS", "assay": "Displacement of [3H]AVP from human recombinant Vasopressin V2 receptor at 10 uM incubated for 120 mins by radiometric based scintillation counter assay relative to control"}, "[17]": {"organism": "Homo sapiens", "assay": "Inhibition of Voltage-gated Na+ channel (site 1) (unknown origin) at 10 uM by radioligand binding assay relative to control"}, "[18]": {"organism": "Homo sapiens", "assay": "Displacement of [35S]TBPS to GABA channel Chloride ionophore binding site (unknown origin) at 10 uM by radioligand binding assay relative to control", "conditions": "filed as antagonist"}, "[19]": {"molecular_target": "T3, Endothelin-1 receptor (Homo sapiens, UniProt P25101)", "T3 sequence (P25101 whole entry)": "T2 sequence (whole entry)", "assay": "Antagonist activity at ETA receptor in endothelin-1 stimulated human Pericardial smooth muscle cell assessed as inhibition of […] in presence of myo-[3H] inositol by anion exchange chromatography", "type": "functional, cell-based"}, "[20]": {"molecular_target": "T1, Endothelin-1 receptor", "assay": "Antagonist activity to ETA receptor in Sprague-Dawley rat aorta assessed as induction of vessel ring contraction preincubated for 15 mins", "type": "functional, tissue-based", "conditions": "read-out: pA2 (converted)"}, "[21]": {"assay": "Half life in Beagle dog at 5 mg/kg, po administered for 12 hrs by HPLC analysis", "type": "ADME, organism-based, Canis lupus familiaris", "conditions": "in vivo"}, "[22]": {"assay": "Oral bioavailability in Sprague-Dawley rat at 10 mg/kg administered for 12 hrs by HPLC analysis", "type": "ADME, organism-based", "conditions": "in vivo"}, "[23]": {"assay": "Volume of distribution at steady state during terminal phase in Sprague-Dawley rat at 5 mg/kg, iv administered for 12 hrs by reverse phase HPLC-UV analysis", "type": "ADME, organism-based", "conditions": "in vivo, read-out: Vbeta"}}, "note": "pIC50: −log10 of the molar value."}
{"compound": "CCCCN(CCCC)C(=O)CN1[C@H](c2cc(OC)c3c(c2)OCO3)C[C@@H](C(=O)O)[C@@H]1CC(C)(C)CCC", "values": [{"measurement": "pIC50", "setting": "[1]", "result": 9.25}, {"measurement": "inhibition", "setting": "[2]", "result": "< 10", "unit": "%"}, {"measurement": "inhibition", "setting": "[3]", "result": "< 10", "unit": "%"}, {"measurement": "inhibition", "setting": "[4]", "result": "< 10", "unit": "%"}, {"measurement": "inhibition", "setting": "[5]", "result": 11, "unit": "%"}, {"measurement": "inhibition", "setting": "[6]", "result": "< 10", "unit": "%"}, {"measurement": "inhibition", "setting": "[7]", "result": "< 10", "unit": "%"}, {"measurement": "inhibition", "setting": "[8]", "result": 98, "unit": "%"}, {"measurement": "inhibition", "setting": "[9]", "result": "< 10", "unit": "%"}, {"measurement": "inhibition", "setting": "[10]", "result": "< 10", "unit": "%"}, {"measurement": "inhibition", "setting": "[11]", "result": "< 10", "unit": "%"}, {"measurement": "inhibition", "setting": "[12]", "result": 62, "unit": "%"}, {"measurement": "inhibition", "setting": "[13]", "result": 37, "unit": "%"}, {"measurement": "inhibition", "setting": "[14]", "result": "< 10", "unit": "%"}, {"measurement": "inhibition", "setting": "[15]", "result": "< 10", "unit": "%"}, {"measurement": "inhibition", "setting": "[16]", "result": "< 10", "unit": "%"}, {"measurement": "inhibition", "setting": "[17]", "result": 22, "unit": "%"}, {"measurement": "inhibition", "setting": "[18]", "result": 61, "unit": "%"}, {"measurement": "pIC50", "setting": "[19]", "result": 8.52}, {"measurement": "Kb", "setting": "[20]", "result": 5.13, "unit": "nM"}, {"measurement": "half-life", "setting": "[21]", "result": 3.3, "unit": "h"}, {"measurement": "bioavailability", "setting": "[22]", "result": 47.7, "unit": "%"}, {"measurement": "Vd", "setting": "[23]", "result": 3.7, "unit": "L/kg"}]}
